Test results taken from patent US20260115312A1, “Conjugates for neuroretinal drug delivery” (Mireca Medicines GmbH, priority 2022, published 2026).

Key:
MCT1 = settings: cited from earlier work
MCT2 = settings: cited from earlier work
[1] = In vitro drug release from liposomes; assay type: physicochemical; settings: liposomes according to the invention, in vitro set-up
Experimental: Complete release of CN04 from liposomes according to the invention was shown in an in vitro set-up within 48 h. The release rate for CN03 and CN04 can be lowered by precipitation within the liposome cavity with a specific salt using a remote loading technique similar to what has been done for liposomal doxorubicin formulations. CN03 has previously been remote loaded in similar liposomes using calcium acetate salts (Vighi, E., et al., PNAS, 2018, 115(13)).

[2] = tested on: photoreceptors in rd1 retinal explant cultures; test: TUNEL assay of dying photoreceptors in rd1 organotypic retinal explant cultures; assay type: cell-based, mouse; settings: free drug solution, 160 μM in 20 μL, final 3.14 μM, P7-P11
Experimental: FIG. 3A—Treatment of organotypic retinal explant cultures derived from the rd1 mouse model. Retinas were cultured at P5 and treated with either liposome-encapsulated or non-encapsulated (free) neuroprotective drugs (CN03 or CN04) from P7-P11. Assuming an equal distribution across the entire culturing medium, the final drug concentration was 3.14 μM for all treatments. The amount of dying photoreceptors in tissue sections from cultures under various treatment conditions was assessed using the TUNEL assay. DAPI was used to distinguish the outer nuclear layer (ONL). INL=inner nuclear layer. Scale bar 50 μm.
FIG. 3B—As for 3A, shown are percentages of dying (TUNEL+) cells in the ONL. Under non-treated (NT) conditions, the number of TUNEL+ cells are high in the rd1 model. Administration of free CN03 or CN04 had no significant effect on cell death. […]
(§1) Retinas derived from the rd1 or rd10 mouse models were cultured following the protocol described above and treated with the drugs CN03 or CN04. […] 11 z-stacks 1 μm apart were recorded, and from the projected images, the number of TUNEL-positive cells in the outer nuclear layer was manually counted. For the rd10 derived cultures, the average number of photoreceptor rows residing in the outer nuclear layer was counted from microscopy images, using the same imaging method. […]

[3] = tested on: photoreceptors in rd10 retinal explant cultures; test: Remaining photoreceptor rows in rd10 organotypic retinal explant cultures; assay type: cell-based, mouse; settings: treated P11 until P17 or P24, DSPC-containing liposomes, same drug concentration
Experimental: FIG. 4A—Treatment of organotypic retinal explant cultures derived from the rd10 mice model. Retinas were cultured at P9 and treated from P11 until either P17 or P24 with free neuroprotective CN03 or with CN03 encapsulated in pyruvate-liposomes (Lp-Pyr/CN03). Representative images of retinal explant culture sections at P17 and P24. DAPI used as nuclear stain. ONL=outer nuclear layer, INL=inner nuclear layer.
FIG. 4B—As for 4A, shown is the number of remaining photoreceptor rows in the tissue sections. NT and CN03 substantially overlap. Results represent mean±SD. At P17: n=4-6. At P24: n=4-5. **=p≤0.01 between the Lp-Pyr/CN03 and CN03 or NT group. Statistical analysis: Two-way ANOVA with Tukey's multiple comparison test. Scale bar 50 μm.
as §1, with “CN04. A treatment was done by applying a 20 μL solution containing 160 μM drug (either loaded in liposomes or in a free solution) to the top of the cultures.” for “CN04.”

Cc1[nH]nc(C(F)(F)F)c1Cc1sc2c(c1C(=O)N1C[C@](C)(O)CO1)c(=O)n(C)c(=O)n2C(C)C [AZD3965]
Ki (MCT1): 1.6 nM

Cc1n[nH]c(C)c1Cc1sc2c(c1C(=O)N1C[C@H](O)CO1)c(=O)n(C)c(=O)n2CC(C)C [AR-C155858]
Ki (MCT2): < 10 nM

O=c1c2nc(Sc3ccc(Cl)cc3)n([C@@H]3O[C@@H]4CO[P@@](=O)(S)O[C@@H]4C3O)c2nc2[nH]c(-c3ccccc3)cn12 (stereo partly drawn) [CN04, Rp-8-pCPT-PET-cGMPS]
Complete release from liposomes (time) [1]: ≤ 48 h
Dying photoreceptors (TUNEL+ cells in ONL) [2]: no significant reduction in dying photoreceptors

O=c1c2nc(Br)n([C@@H]3O[C@@H]4CO[P@@](=O)(S)O[C@@H]4C3O)c2nc2[nH]c(-c3ccccc3)cn12 (stereo partly drawn) [CN03, Rp-8-Br-PET-cGMPS]
Dying photoreceptors (TUNEL+ cells in ONL) [2]: no significant reduction in dying photoreceptors
Number of remaining photoreceptor rows [3]: did not achieve a rescue effect
